The values below come from patent US20180282271A1, “ANTIBIOTIC AMINO ACID MIMETICS” (priority 2017, published 2018).

Each structure is given as a SMILES string. Converted amounts (≈) assume the structure as drawn. Where only a bound is given, the exact number is not on record here.

One experiment relates to E. coli. The experiment in a line: MIC, conventional methods. Format: cell-based, Escherichia coli. The protocol: (§1) The following L,L-dipeptides were tested for their minimum inhibitory concentrations against three different bacterial strains as set forth in the table below. The testing protocol followed conventional methods and identified a MIC value reported as micrograms per milliliter (μg/mL). Each of the dipeptides had the following structure: Based on the above results, the sidechain of the methionine mimetic was modified to evaluate the effect of such substitution on MIC values. Again, this test used conventional assays to measure the MIC values of each of these modified mimetics.

For a further experiment, the system named is S. aureus. Kind of experiment: MIC, conventional methods. The experiment is classed as cell-based, Staphylococcus aureus. As to the method: as §1
A further experiment has as its system P. aer. Kind of experiment: MIC, conventional methods. The experiment is classed as cell-based, Pseudomonas aeruginosa. As to the method: as §1
A further experiment concerns E. coli (ATTC 8739). Kind of experiment: Zone of inhibition test. The experiment is classed as cell-based. The protocol: Compound A was tested against L-phenylalanine-(S)-2-amino-N-hydroxy-4-(methylthio)butanamide hydrochloride (Example 3) in a side-by-side comparison in a conventional zone of inhibition test. In this test, both compounds were compared at various concentrations against E. coli (ATTC 8739) grown in a Petri dish using the antibiotic kanamycin as a control.

Experiment [1] deals with Enterococcus faecalis MMX 101/ATCC 29212. The experiment in a line: Broth microdilution MIC, standard CLSI media, ATCC QC organism. Format: cell-based. The protocol: (§2) The test organisms were originally received from clinical sources or from the American Type Culture Collection (ATCC, Manassas, Va.). When received, the organisms were subcultured onto an appropriate agar medium. Following incubation, colonies were harvested from the plate and a cell suspension was prepared in broth containing cryoprotectant and frozen at −80° C. Prior to the assay, a frozen vial of the culture was partially thawed and the contents were streaked for isolation onto an appropriate growth medium. The agar plates were incubated overnight at 35° C. Test organisms included staphylococci and enterococci (Table 1), streptococci (Table 2), Enterobacteriaceae (Table 3), lactose non-fermenting Gram-negative bacilli (Table 4), Haemophilus influenzae (Table 5), Neisseria gonorrhoeae (Table 5), and Clostridium difficile (Table 6).
(§3) The standard CLSI broth medium was employed for the purposes of quality control of the comparator drugs for the MIC assay and was only used for testing of relevant ATCC quality control isolates as established by CLSI (1-5).
(§4) MIC values were determined using a broth microdilution method as recommended by CLSI (1-5).
(§5) Column 1 was filled with 300 μL of the investigational and control agents at the appropriate stock concentration (40× of the highest test concentration). The Biomek 2000 was used to make eleven 2-fold serial dilutions to create a “mother plate.” The wells of column 12 contained no drug and served as growth control wells.
(§6) The daughter plates were prepared on the Biomek FX instrument which transferred 5 μL of drug solution from each well of the mother plate to the corresponding well of each daughter plate in a single step.
(§7) Standardized inoculum of each organism was prepared per CLSI methods (1-5). The inoculum for each organism was dispensed into sterile reservoirs divided by length (Beckman Coulter), and the Biomek 2000 was used to inoculate the plates. Daughter plates were placed on the Biomek 2000 work surface reversed so that inoculation took place from low to high drug concentration. The Biomek 2000 delivered 10 PL of standardized inoculum into each well resulting in a target inoculum size of approximately 5×10^5 CFU/mL. The wells of the daughter plates ultimately contained 185 μL of media, 5 μL of drug solution at 40× the test concentration, and 10 μL of bacterial inoculum prepared in media.
(§8) Plates were stacked 3-4 high, covered with a lid on the top plate, placed into plastic bags, and incubated at 35° C. under the appropriate conditions, with C. difficile incubated anaerobically. Plates were viewed post-incubation at 18-24 hr and again at 48 hr from the bottom using a plate viewer. […] MICs were read where visible growth of the organism was inhibited.

The subject of experiment [2] is Neisseria gonorrhoeae MMX 683/ATCC 49226. Described as above. Format: cell-based. The protocol:
as §2, §3, §4, §5, §6, §7, §8

The test system of experiment [3] is Haemophilus influenzae MMX 1224/ATCC 49247. The description is as above. The experiment is classed as cell-based. The protocol: as §2, §3, §4, §5, §6, §7, §8
Experiment [4] has as its system Pseudomonas aeruginosa MMX 103/ATCC 27853. Described as above. Format: cell-based. The protocol:
as §2, §3, §4, §5, §6, §7, §8

Experiment [5] has as its system Streptococcus pneumoniae MMX 1195/ATCC 49619. The experiment is described as above. Format: cell-based. As to the method: as §2, §3, §4, §5, §6, §7, §8
Experiment [6] deals with Escherichia coli MMX 102/ATCC 25922. The experiment is described as above. Format: cell-based. As to the method:
as §2, §3, §4, §5, §6, §7, §8

For experiment [7], the system named is Clostridium difficile MMX 4381/ATCC 700057. The description is as above. The experiment is classed as cell-based. The settings on record: Clostridioides difficile, ATCC700057, 48 hr results. The protocol:
as §2, §3, §4, §5, §6, §7, §8

The subject of experiment [8] is Staphylococcus aureus MMX 100/ATCC 29213. The experiment is described as above. Format: cell-based. The protocol: as §2, §3, §4, §5, §6, §7, §8
Experiment [9] has as its system Escherichia coli MMX 102/ATCC 25922. The settings on record: CLSI QC ranges shown in parenthesis; cited from earlier work.
The subject of experiment [10] is Pseudomonas aeruginosa MMX 103/ATCC 27853. The settings on record: CLSI QC ranges shown in parenthesis; cited from earlier work.
The test system of experiment [11] is Streptococcus pneumoniae MMX 1195/ATCC 49619. The conditions noted are these: CLSI QC ranges shown in parenthesis; cited from earlier work.
Experiment [12] deals with Enterococcus faecalis MMX 101/ATCC 29212. The conditions noted are these: CLSI QC ranges shown in parenthesis; cited from earlier work.
In experiment [13] the test system is Staphylococcus aureus MMX 100/ATCC 29213. The conditions noted are these: CLSI QC ranges shown in parenthesis; cited from earlier work.
The subject of experiment [14] is Haemophilus influenzae MMX 1224/ATCC 49247. The conditions noted are these: CLSI QC ranges shown in parenthesis; cited from earlier work.
Where [15] appears, read: Table 1, L,L-dipeptides varied in T.
Setting [16] is: Table 2, side chain Q of the methionine mimetic varied.

With `CSCC[C@H](NC(=O)CN)C(=O)NO` [Compound A], the “MIC E. coli” value with E. coli (setting [15]) and against E. coli (setting [16]) was 138 µg/mL (≈ 624 µM) in each case. Also, the “MIC S. aur.” value against S. aureus (setting [15]) and in the experiment with S. aureus (setting [16]) was 84 µg/mL (≈ 380 µM) each time. Moreover, the “MIC P. aer.” value against P. aer. (setting [15]) and against P. aer. (setting [16]) was 647 µg/mL (≈ 2920 µM) throughout. For the same molecule, the “concentration at which a zone of inhibition was shown” value in the experiment with E. coli (ATTC 8739) (E. coli grown in a Petri dish, FIG. 1A/1B) is 50 µg. Further, the “strength of the zone of inhibition, in words” value in the experiment with E. coli (ATTC 8739) (cpd. A at 50 μg, Ex. 3 at 12.5 μg) is on record as “quite weak”.
Take `C[C@@H](O)[C@H]1C(=O)N2C(C(=O)O)=C(S[C@@H]3CN[C@H](C(=O)N(C)C)C3)[C@H](C)[C@H]12` [MEM, meropenem]: the MIC in experiment [1] (ATCC29212, 24 hr results) is 4 µg/mL (≈ 10.4 µM); in [1] (ATCC29212, 48 hr results), over 4 µg/mL; in experiment [2] (ATCC49226, 24 hr results), over 4 µg/mL; in experiment [2] (ATCC49226, 48 hr results), over 4 µg/mL; in [3] (ATCC49247, 24 hr results) it was 0.06 µg/mL (≈ 0.156 µM); in [3] (ATCC49247, 48 hr results), 0.06 µg/mL (≈ 0.156 µM). Further, the MIC in experiment [4] (ATCC27853, 24 hr results) came to 0.5 µg/mL (≈ 1.3 µM); in experiment [4] (ATCC27853, 48 hr results), 1 µg/mL (≈ 2.61 µM); in experiment [5] (ATCC49619, 24 hr results), 0.06 µg/mL (≈ 0.156 µM); in [5] (ATCC49619, 48 hr results) it was 0.06 µg/mL (≈ 0.156 µM); in experiment [6] (ATCC25922, 24 hr results), 0.03 µg/mL (≈ 0.0782 µM); in experiment [6] (ATCC25922, 48 hr results) it was 0.03 µg/mL (≈ 0.0782 µM). The MIC in [7] came to 1 µg/mL (≈ 2.61 µM); in [8] (ATCC29213, 24 hr results) it was 0.06 µg/mL (≈ 0.156 µM); in experiment [8] (ATCC29213, 48 hr results), 0.12 µg/mL (≈ 0.313 µM). In addition, the “CLSI QC range of MIC” value was “(0.008-0.06) μg/mL” in experiment [9]; “(0.25-1) μg/mL” in [10]; “(0.03-0.25) μg/mL” in [11]; “(2-8) μg/mL” in experiment [12]; “(0.03-0.12) μg/mL” in experiment [13].
As for `CO/N=C(\C(=O)N[C@@H]1C(=O)N2C(C(=O)[O-])=C(C[N+]3(C)CCCC3)CS[C@H]12)c1csc(N)n1` [FEP, cefepime], the MIC in experiment [1] (ATCC29212, 24 hr results) was over 64 µg/mL; in experiment [1] (ATCC29212, 48 hr results), over 64 µg/mL; in experiment [2] (ATCC49226, 24 hr results) it was 16 µg/mL (≈ 33.3 µM); in experiment [2] (ATCC49226, 48 hr results), 32 µg/mL (≈ 66.6 µM); in [3] (ATCC49247, 24 hr results) it was 0.25 µg/mL (≈ 0.52 µM); in [3] (ATCC49247, 48 hr results), 0.25 µg/mL (≈ 0.52 µM). Moreover, the MIC came to 1 µg/mL (≈ 2.08 µM) in experiment [4] (ATCC27853, 24 hr results); 2 µg/mL (≈ 4.16 µM) in [4] (ATCC27853, 48 hr results); 0.5 µg/mL (≈ 1.04 µM) in experiment [5] (ATCC49619, 24 hr results); 0.5 µg/mL (≈ 1.04 µM) in [5] (ATCC49619, 48 hr results); 0.25 µg/mL (≈ 0.52 µM) in experiment [6] (ATCC25922, 24 hr results); 0.25 µg/mL (≈ 0.52 µM) in experiment [6] (ATCC25922, 48 hr results). Further, the MIC in experiment [8] (ATCC29213, 24 hr results) worked out at 16 µg/mL (≈ 33.3 µM); in experiment [8] (ATCC29213, 48 hr results), 16 µg/mL (≈ 33.3 µM). The “CLSI QC range of MIC” value in experiment [9] is “(0.06-0.5) μg/mL”; in experiment [10], “(1-4) μg/mL”; in experiment [13], “(4-16) μg/mL”; in experiment [14] it was “(0.12-1) μg/mL”.
